Results from patent publication US5439933A (priority 1993, dated 1995).
In brackets after ≈: the same amount, converted by molar mass. Read-outs that look alike come from different tables or passages of the source. Starred links: 1 amine or outer side, 2 acyl side, 3 side chain; linkers in the order of their positions; H or OH if unused. Positions of bridges follow the written chain, without caps; N, C: chain ends. Non-standard residues stand in square brackets, D forms with d. Residues, ends and D or L forms follow the SMILES beside them. Chains are numbered I, II in the order given. Actinocin(9to1) = Cc1c2oc3c(C)ccc(C(=O)[*:1])c3nc-2c(C(=O)[*:2])c(N)c1=O; NMeV = CN[C@H](C(=O)O)C(C)C; Sar = CNCC(=O)O

What was measured:
[1] = system: LoVo human adenocarcinoma cells; experiment: Cell proliferation assay (cell counts), LoVo; type: cell-based; settings: Table 6, read-out: IC50 LoVo
Method: (§1) Tolytoxin and the other new scytophycin compounds are potent anticancer and antifungal agents. The cytotoxicity of tolytoxin and other new scytophycin compounds was determined using a cell proliferation assay, which tested the effect of the compounds on increases in cell numbers.
(§2) Cell lines were grown in plastic dishes (Falcon) in Eagle's basal medium supplemented with 5% newborn calf serum (KB), Fisher's medium supplemented with 10% horse serum (L1210), Dulbecco's modified Eagle's medium supplemented with 5% heat-inactivated fetal calf serum (LoVo), minimal essential medium supplemented with 2% heat-inactivated chicken serum (HEp-2), RPMI-1640 supplemented with 10% heat-inactivated fetal calf serum (T-47D, COLO-201) or 20% heat-inactivated fetal calf serum (HL-60, KATO-III), or McCoy's 5A supplemented with 10% heat-inactivated fetal calf serum (HBL-100). All cell culture media were supplemented with 50 μg/ml gentamycin sulfate. The cultures were incubated at 37° C. in a humidified atmosphere containing 5% carbon dioxide.
(§3) Cultures were exposed to graded concentrations of tolytoxin and reincubated for 72 hours in the presence of tolytoxin. Three dishes were used for each treatment. Cell numbers were determined by hemacytometer counts. The IC50 for each cell line was determined by plotting the logarithm of the tolytoxin concentration versus growth (cell number as a percentage of the control) of the treated cells.
(§4) The other new scytophycin compounds are also potent cytotoxins. For example, the IC50 of the scytophycins against KB human epidermoid carcinoma, LoVo human adenocarcinoma, and L1210 murine leukemia were determined using the cell proliferation assay described for tolytoxin.

[2] = system: SKVLB (multi-drug resistant subline of SKOV3); experiment: cells; type: cell-based, Human; settings: for IC50: Homo sapiens, 48 hours, read-out: IC50 SKVLB; for IC50 / Fold-Resistance: Table 7; for IC50 / resistance of the multi-drug resistant cell line: SKVLB; for Fold-Resistance: SKVLB vs SKOV3, 2880 min
[3] = system: L1210 murine leukemia cells; experiment: Cell proliferation assay (cell counts), L1210; type: cell-based; settings: Mus musculus; Table 6; L1210; read-out: IC50 L1210
Method: as §1, §2, §3, §4

[4] = system: KB human epidermoid carcinoma cells; experiment: Cell proliferation assay (cell counts), KB; type: cell-based; settings: Table 6, KB, read-out: IC50 KB
Method: as §1, §2, §3, §4

[5] = system: Human ovarian carcinoma cells (SKOV3); experiment: cells; type: cell-based; settings: SK-OV-3, Table 7, SKOV3, 48 hours, read-out: IC50 SKOV3
Method: Human ovarian carcinoma cells (SKOV3) and a subline made multi-drug resistant by slowly increasing vinblastine in the culture medium over the course of many passages (SKVLB) were grown in Earle's basal medium (BME) containing 10% fetal calf serum. The SKVLB cells were maintained in the presence of 1 µg/mL vinblastine. The multi-drug resistant cell line is resistant to adriamycin, vinblastine, actinomycin D, and colchicine.
Cell proliferation was estimated by measurement of protein content of the cultured cells, as described by Skehan et al. (1990). Cells were plated into 24-well plates at approximately 10% confluency in BME and were allowed to attach and recover for at least 24 hours. The cells were then treated with the scytophycins or appropriate control for 48 hours. After the incubation, the medium was removed from each well and cells fixed by addition of 10% (w/v) trichloroacetic acid (TCA) (4° C.). The cells were incubated at 4° C. for one hour and then washed five times with water to remove TCA. The TCA-fixed cells were then stained for 30 minutes with 0.4% (w/v) sulforhodamine B prepared in 1% acetic acid. Following the staining, the cell layers were washed four times with 1% acetic acid. The cell layer was dissolved in 10 mM unbuffered tris-hydroxymethylaminomethane base. Absorbance of the solution was determined at 564 nm. Antiproliferative activity is manifested as decreased production of cellular protein.

[6] = system: Candida albicans A26; experiment: Antifungal agar dilution; type: cell-based
Method: (§5) The new scytophycins are also useful as antifungal agents. Antimicrobial activity was determined by the agar dilution method. Tolytoxin was dissolved in 95% ethanol for addition to cooled, molten agar. Nystatin was solubilized in DMSO and diluted in distilled water. Appropriate solvent controls were also prepared. Fungal cultures were grown on Saboraud dextrose agar. Assay plates were incubated for 48 hours post-inoculation. Yeasts and filamentous fungi were incubated at 25° C.
(§6) Activity was determined using the method described above for tolytoxin.

[7] = system: Saccharomyces cerevisae; experiment: Antifungal agar dilution; type: cell-based; settings: Saccharomyces cerevisae; for IC50: Table 9
Method: as §5, §6

[8] = system: Phytophthora nicotianae H729; experiment: Antifungal agar dilution; type: cell-based; settings: Phytophthora nicotianae H729
Method: as §5, §6

[9] = system: Thielaviopsis paradoxa 1215; experiment: Antifungal agar dilution; type: cell-based; settings: Thielaviopsis paradoxa 1215; for IC50: Table 9
Method: as §5, §6

[10] = system: Sclerotium rofsii 2133; experiment: Antifungal agar dilution; type: cell-based; settings: Sclerotium rofsii 2133
Method: as §5, §6

[11] = system: actin microfilaments; settings: by binding to the end unit of growing actin microfilaments; cited from earlier work
[12] = system: cellular sugar uptake; settings: side effect; cited from earlier work
[13] = system: Calonectria critalarae 1809; experiment: Antifungal agar dilution; type: cell-based; settings: Table 8; Calonectria critalarae 1809; 48 hours
Method: as §5

[14] = system: Aspergillus oryzae; experiment: Antifungal agar dilution; type: cell-based; settings: Table 8, 48 hours
Method: as §5

[15] = system: Phyllosticta capitalensis 689-5; experiment: Antifungal agar dilution; type: cell-based; settings: Table 8; Phyllosticta capitalensis 689-5; 48 hours
Method: as §5

[16] = system: Colletotrichum coccodes 1809; experiment: Antifungal agar dilution; type: cell-based; settings: Table 8; Colletotrichum coccodes 1809; 48 hours
Method: as §5

[17] = system: Penicillium notatum; experiment: Antifungal agar dilution; type: cell-based; settings: Table 8; Penicillium notatum; 48 hours
Method: as §5

[18] = system: Rhizoctonia solani 1165; experiment: Antifungal agar dilution; type: cell-based; settings: Table 8; Rhizoctonia solani 1165; 48 hours
Method: as §5

[19] = system: Alternaria alternata 1715; experiment: Antifungal agar dilution; type: cell-based; settings: Table 8; Alternaria alternata 1715; 48 hours
Method: as §5

[20] = system: Bipolaris incurvata 2118; experiment: Antifungal agar dilution; type: cell-based; settings: Table 8; Bipolaris incurvata 2118; 48 hours
Method: as §5

[21] = system: Trichophyton mentagrophytes A23; experiment: Antifungal agar dilution; type: cell-based; settings: Table 8; Trichophyton mentagrophytes A23; 48 hours
Method: as §5

[22] = Table 9, Candida albicans A26, read-out: IC50

SMILES	IC50 [1] [nM]	IC50 [2] [nM]	Fold-Resistance [2]	IC50 [3] [nM]	IC50 [4] [nM]	IC50 [5] [nM]	MIC [6, 22] [nM]	IC50 [7] [nM]	MIC ([8]; Table 9, read-out: IC50) [nM]	IC50 [9] [nM]	MIC ([10]; Table 9, read-out: IC50) [nM]	resistance of the multi-drug resistant cell line [2]	other results
COC1CC2C=CCC(CC(OC)C(CO)C(OC)CC(OC)C(C)C(C(C)C(O)C(C)CCC(=O)C(C)C(OC)C(C)/C=C/N(C)C=O)OC(=O)/C=C/C(C)=C/C1O)O2 (centres unmarked) [6-Hydroxy-7-O-methylscytophycin E, 6-hydroxy-7-O-methylscytophycin E]	8	300	3	6.6	12	100	64 (≈ 54.5 ng/mL)	64	16 (≈ 13.6 ng/mL)	32	16 (≈ 13.6 ng/mL)	–	–
COC1CC(OC)C2(CO2)C(OC)CC2CC=CC(CC(O)C(O)/C=C(C)/C=C/C(=O)OC(C(C)C(O)C(C)CCC(=O)C(C)C(OC)C(C)/C=C/N(C)C=O)C1C)O2 (centres unmarked) [6-Hydroxyscytophycin B]	8.2	150	3	11	3.6	50	200 (≈ 167 ng/mL)	100	64 (≈ 53.5 ng/mL)	32	16 (≈ 13.4 ng/mL)	–	–
COC1CC2CC=CC(CC(O)C/C=C(C)/C=C/C(=O)OC(C(C)C(O)C(C)CCC(=O)C(C)C(OC)C(C)/C=C/N(C)C=O)C(C)C(O)CC(OC)C1C)O2 (centres unmarked) [19-O-demethylscytophycin C]	2.9	25	1	12.5	9.2	25	128 (≈ 101 ng/mL)	64	8 (≈ 6.34 ng/mL)	16	4 (≈ 3.17 ng/mL)	–	–
COc1cccc2c1C(=O)c1c(O)c3c(c(O)c1C2=O)C[C@@](O)(C(=O)CO)C[C@@H]3O[C@H]1C[C@H](N)[C@H](O)[C@H](C)O1 [Adriamycin]	–	> 100000	> 250	–	–	400	–	–	–	–	–	resistant	–
C=C1C(C)C2C(Cc3ccccc3)NC(=O)C23OC(=O)C=CC(O)CCCC(C)CC=CC3C1O (centres unmarked) [Cytochalasin B]	–	30000	6	–	–	5000	–	–	–	–	–	–	microfilament formation [11]: inhibit microfilament formation; cellular sugar uptake [12]: inhibits cellular sugar uptake
C[C@@H]1[C@H](O)[C@@H](C)/C=C/C=C/CC/C=C/C=C/C=C/C=C/C(O[C@H]2O[C@H](C)[C@@H](O)[C@H](N)[C@@H]2O)CC2O[C@](O)(CC(O)C(O)CCC(O)CC(O)CC(O)CC(=O)O[C@H]1C)CC(O)C2C(=O)O (some centres unmarked) [Nystatin, reference compound]	–	–	–	–	–	–	–	–	–	–	–	–	MIC [13]: 0.25 nM (≈ 0.232 ng/mL); MIC [14]: 0.5 nM (≈ 0.463 ng/mL); MIC [15]: 0.125 nM (≈ 0.116 ng/mL); MIC [16]: 0.25 nM (≈ 0.232 ng/mL); MIC [17]: 0.125 nM (≈ 0.116 ng/mL); MIC [18]: 0.0625 nM (≈ 0.0579 ng/mL); MIC [19]: 0.5 nM (≈ 0.463 ng/mL); MIC [20]: 0.25 nM (≈ 0.232 ng/mL); MIC [21]: 0.5 nM (≈ 0.463 ng/mL); MIC ([6]; Table 8, Candids albicans A26, 48 hours): 1 nM (≈ 0.926 ng/mL); MIC ([7]; Table 8, 48 hours): 1 nM (≈ 0.926 ng/mL); MIC ([8]; Table 8, 48 hours): 1 nM (≈ 0.926 ng/mL); MIC ([9]; Table 8, 48 hours): 0.5 nM (≈ 0.463 ng/mL); MIC ([10]; Table 8, 48 hours): 0.125 nM (≈ 0.116 ng/mL)
CC[C@]1(O)C[C@@H]2CN(CCc3c([nH]c4ccccc34)[C@@](C(=O)OC)(c3cc4c(cc3OC)N(C)[C@H]3[C@@](O)(C(=O)OC)[C@H](OC(C)=O)[C@]5(CC)C=CCN6CC[C@]43[C@@H]65)C2)C1 [Vinblastine]	–	10000	10,000	–	–	1	–	–	–	–	–	resistant	–
Cc1c2oc3c(C)ccc(C(=O)N[C@@H]4C(=O)N[C@H](C(C)C)C(=O)N5CCC[C@H]5C(=O)N(C)CC(=O)N(C)[C@@H](C(C)C)C(=O)O[C@@H]4C)c3nc-2c(C(=O)N[C@@H]2C(=O)N[C@H](C(C)C)C(=O)N3CCC[C@H]3C(=O)N(C)CC(=O)N(C)[C@@H](C(C)C)C(=O)O[C@@H]2C)c(N)c1=O [actinomycin D] (I: T[dV]P[Sar][NMeV] / II: T[dV]P[Sar][NMeV]; ester I:1-I:C, II:1-II:C; linker I:N-II:N via Actinocin(9to1))	–	–	–	–	–	–	–	–	–	–	–	resistant	–
COc1cc2c(c(OC)c1OC)-c1ccc(OC)c(=O)cc1[C@@H](NC(C)=O)CC2 [colchicine]	–	–	–	–	–	–	–	–	–	–	–	resistant	–
